Source: publication PMC6430017, “Structural and chemical insights into the covalent-allosteric inhibition of the protein kinase Akt” (Chemical Science, 2019)

Columns and labels:
Test in all cases: SelectScreen Z'LYTE kinase profiling
Assay type in all cases: biochemical
Conditions in all cases: ATP at apparent KM
MELK = MELK (Homo sapiens, UniProt Q14680)
Procedure: (§1) protein kinases at a compound concentration of 1 µM. Measurements were performed in duplicates
(§2) and at the particular apparent ATP KM of each individual kinase employing the activity based Z’LYTE®
(§3) kinase assay of the SelectScreen® Kinase Profiling Services (ThermoFisher Scientific).
(§4) kinases at a compound concentration of 1 µM. Measurements were performed in duplicates and at
(§5) the particular apparent ATP KM of each individual kinase employing the activity based Z’LYTE® kinase
(§6) assay of the SelectScreen® Kinase Profiling Services (ThermoFisher Scientific).

PRKCA (PKC alpha) = PRKCA (PKC alpha) (Homo sapiens, UniProt P17252)
Procedure: as §1, §2, §3, §4, §5, §6

SRC = SRC (Homo sapiens, UniProt P12931)
Procedure: as §1, §2, §3, §4, §5, §6

RPS6KA1 (RSK1) = RPS6KA1 (RSK1) (Homo sapiens, UniProt Q15418)
Procedure: as §1, §2, §3, §4, §5, §6

PRKCE (PKC epsilon) = biological target: T1, PRKCE (PKC epsilon) (Homo sapiens, UniProt Q02156)
T1 sequence (Q02156 1-737): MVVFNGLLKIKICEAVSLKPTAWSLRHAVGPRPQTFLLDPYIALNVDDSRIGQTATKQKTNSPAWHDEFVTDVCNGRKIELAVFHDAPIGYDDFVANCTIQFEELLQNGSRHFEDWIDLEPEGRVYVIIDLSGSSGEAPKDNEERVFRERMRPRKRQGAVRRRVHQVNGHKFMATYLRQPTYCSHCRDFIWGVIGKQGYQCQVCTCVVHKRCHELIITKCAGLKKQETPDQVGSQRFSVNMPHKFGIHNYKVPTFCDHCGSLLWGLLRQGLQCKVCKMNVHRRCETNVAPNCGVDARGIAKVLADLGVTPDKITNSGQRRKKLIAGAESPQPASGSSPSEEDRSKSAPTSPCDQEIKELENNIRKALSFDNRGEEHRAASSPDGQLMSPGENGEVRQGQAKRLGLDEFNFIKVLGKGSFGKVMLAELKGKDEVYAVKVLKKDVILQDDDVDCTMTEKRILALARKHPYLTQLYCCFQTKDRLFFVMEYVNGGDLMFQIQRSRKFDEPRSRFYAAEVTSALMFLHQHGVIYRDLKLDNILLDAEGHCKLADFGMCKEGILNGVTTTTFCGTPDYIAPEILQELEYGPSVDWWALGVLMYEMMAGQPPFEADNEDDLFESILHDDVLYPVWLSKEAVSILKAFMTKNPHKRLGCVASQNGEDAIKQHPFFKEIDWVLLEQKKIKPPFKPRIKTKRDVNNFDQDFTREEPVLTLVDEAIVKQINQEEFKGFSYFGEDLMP
Procedure: as §1, §2, §3, §4, §5, §6

RPS6KA4 (MSK2) = RPS6KA4 (MSK2) (Homo sapiens, UniProt O75676)
Procedure: as §1, §2, §3, §4, §5, §6

IGF1R = IGF1R (Homo sapiens, UniProt P08069)
MARK2 = MARK2 (Homo sapiens, UniProt Q7KZI7)
Procedure: as §1, §2, §3, §4, §5, §6

PRKCI (PKC iota) = biological target: T2, PRKCI (PKC iota) (Homo sapiens, UniProt P41743)
T2 sequence (P41743 1-596): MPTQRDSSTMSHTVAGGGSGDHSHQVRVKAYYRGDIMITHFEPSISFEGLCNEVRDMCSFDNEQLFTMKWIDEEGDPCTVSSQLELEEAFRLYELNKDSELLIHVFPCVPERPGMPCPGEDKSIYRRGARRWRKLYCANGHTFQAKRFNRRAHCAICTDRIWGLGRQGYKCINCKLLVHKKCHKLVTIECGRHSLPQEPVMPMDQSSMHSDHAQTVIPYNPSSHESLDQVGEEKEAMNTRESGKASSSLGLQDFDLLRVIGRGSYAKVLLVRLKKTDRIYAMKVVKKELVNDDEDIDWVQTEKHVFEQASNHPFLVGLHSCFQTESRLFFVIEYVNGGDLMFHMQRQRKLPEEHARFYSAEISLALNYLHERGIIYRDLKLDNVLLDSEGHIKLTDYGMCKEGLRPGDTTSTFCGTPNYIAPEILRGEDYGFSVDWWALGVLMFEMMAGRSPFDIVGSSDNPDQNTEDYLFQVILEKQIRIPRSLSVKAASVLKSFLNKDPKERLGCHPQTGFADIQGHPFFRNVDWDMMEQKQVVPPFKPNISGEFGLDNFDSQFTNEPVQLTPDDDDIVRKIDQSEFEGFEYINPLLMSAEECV
Procedure: as §1, §2, §3, §4, §5, §6

ABL1 = ABL1 (Homo sapiens, UniProt P00519)
Procedure: as §1, §2, §3, §4, §5, §6

PRKX = biological target: T3, PRKX (Homo sapiens, UniProt P51817)
T3 sequence (P51817 1-358): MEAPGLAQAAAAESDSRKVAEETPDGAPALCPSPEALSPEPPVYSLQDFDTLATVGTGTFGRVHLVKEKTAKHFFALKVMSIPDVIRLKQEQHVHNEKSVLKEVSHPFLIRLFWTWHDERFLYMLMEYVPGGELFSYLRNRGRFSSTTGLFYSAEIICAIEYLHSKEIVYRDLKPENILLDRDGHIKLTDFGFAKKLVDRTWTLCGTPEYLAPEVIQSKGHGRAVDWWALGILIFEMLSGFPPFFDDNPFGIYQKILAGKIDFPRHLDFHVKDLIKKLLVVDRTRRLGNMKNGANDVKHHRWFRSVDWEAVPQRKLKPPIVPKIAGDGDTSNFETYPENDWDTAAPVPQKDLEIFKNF
Procedure: as §1, §2, §3, §4, §5, §6

PRKCG (PKC gamma) = PRKCG (PKC gamma) (Homo sapiens, UniProt P05129)
Procedure: as §1, §2, §3, §4, §5, §6

SGKL (SGK3) = biological target: T4, SGKL (SGK3) (Homo sapiens, UniProt Q96BR1)
T4 sequence (Q96BR1 1-496): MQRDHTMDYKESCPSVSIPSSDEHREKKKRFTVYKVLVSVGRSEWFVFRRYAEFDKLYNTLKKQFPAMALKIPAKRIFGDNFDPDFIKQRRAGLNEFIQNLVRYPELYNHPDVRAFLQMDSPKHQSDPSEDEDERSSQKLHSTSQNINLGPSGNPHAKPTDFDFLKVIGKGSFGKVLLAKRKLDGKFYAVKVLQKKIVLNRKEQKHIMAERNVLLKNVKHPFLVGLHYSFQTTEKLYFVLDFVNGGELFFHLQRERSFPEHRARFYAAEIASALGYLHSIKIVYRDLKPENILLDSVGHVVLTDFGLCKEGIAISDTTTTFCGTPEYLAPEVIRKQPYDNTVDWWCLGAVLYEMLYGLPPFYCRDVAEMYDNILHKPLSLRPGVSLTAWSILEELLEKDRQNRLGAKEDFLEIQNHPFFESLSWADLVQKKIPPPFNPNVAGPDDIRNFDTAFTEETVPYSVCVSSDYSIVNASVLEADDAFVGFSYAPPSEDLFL
Procedure: as §1, §2, §3, §4, §5, §6

PTK2 (FAK) = PTK2 (FAK) (Homo sapiens, UniProt Q05397)
Procedure: as §1, §2, §3, §4, §5, §6

MKNK1 (MNK1) = MKNK1 (MNK1) (Homo sapiens, UniProt Q9BUB5)
Chain of MKNK1 (MNK1) (Q9BUB5 whole entry): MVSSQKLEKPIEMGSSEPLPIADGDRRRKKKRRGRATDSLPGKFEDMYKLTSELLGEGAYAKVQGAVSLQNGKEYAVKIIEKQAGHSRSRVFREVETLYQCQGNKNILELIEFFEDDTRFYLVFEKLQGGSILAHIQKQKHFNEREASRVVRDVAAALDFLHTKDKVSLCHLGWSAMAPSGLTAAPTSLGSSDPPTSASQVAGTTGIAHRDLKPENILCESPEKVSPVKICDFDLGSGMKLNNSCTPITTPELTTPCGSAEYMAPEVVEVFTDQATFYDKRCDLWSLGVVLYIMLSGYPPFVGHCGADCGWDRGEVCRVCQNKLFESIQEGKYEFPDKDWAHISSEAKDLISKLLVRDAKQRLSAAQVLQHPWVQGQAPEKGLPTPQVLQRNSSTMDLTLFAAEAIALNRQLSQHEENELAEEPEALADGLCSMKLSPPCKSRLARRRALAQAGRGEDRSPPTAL
Procedure: as §1, §2, §3, §4, §5, §6

Chain of RPS6KA1 (RSK1) (Q15418 whole entry): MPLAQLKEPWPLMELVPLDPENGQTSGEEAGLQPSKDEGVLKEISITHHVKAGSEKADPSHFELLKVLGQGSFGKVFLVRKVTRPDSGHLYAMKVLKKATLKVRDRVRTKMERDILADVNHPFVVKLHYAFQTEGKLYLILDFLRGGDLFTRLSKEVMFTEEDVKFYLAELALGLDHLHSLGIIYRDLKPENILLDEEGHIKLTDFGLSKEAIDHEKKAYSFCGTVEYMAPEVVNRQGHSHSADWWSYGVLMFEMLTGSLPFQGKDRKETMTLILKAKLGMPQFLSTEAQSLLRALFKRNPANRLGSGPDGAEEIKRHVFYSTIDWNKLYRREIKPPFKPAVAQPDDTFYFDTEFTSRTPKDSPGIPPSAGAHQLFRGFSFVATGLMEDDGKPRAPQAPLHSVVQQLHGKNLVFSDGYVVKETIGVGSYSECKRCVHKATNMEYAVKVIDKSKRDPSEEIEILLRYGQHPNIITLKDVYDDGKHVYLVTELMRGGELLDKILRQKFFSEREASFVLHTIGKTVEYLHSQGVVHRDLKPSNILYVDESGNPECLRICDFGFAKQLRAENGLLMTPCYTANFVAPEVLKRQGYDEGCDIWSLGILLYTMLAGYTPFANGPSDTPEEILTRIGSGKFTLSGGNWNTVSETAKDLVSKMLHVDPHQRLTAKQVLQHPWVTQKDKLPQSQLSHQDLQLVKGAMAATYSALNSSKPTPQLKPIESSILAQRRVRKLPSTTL
Chain of MARK2 (Q7KZI7 whole entry): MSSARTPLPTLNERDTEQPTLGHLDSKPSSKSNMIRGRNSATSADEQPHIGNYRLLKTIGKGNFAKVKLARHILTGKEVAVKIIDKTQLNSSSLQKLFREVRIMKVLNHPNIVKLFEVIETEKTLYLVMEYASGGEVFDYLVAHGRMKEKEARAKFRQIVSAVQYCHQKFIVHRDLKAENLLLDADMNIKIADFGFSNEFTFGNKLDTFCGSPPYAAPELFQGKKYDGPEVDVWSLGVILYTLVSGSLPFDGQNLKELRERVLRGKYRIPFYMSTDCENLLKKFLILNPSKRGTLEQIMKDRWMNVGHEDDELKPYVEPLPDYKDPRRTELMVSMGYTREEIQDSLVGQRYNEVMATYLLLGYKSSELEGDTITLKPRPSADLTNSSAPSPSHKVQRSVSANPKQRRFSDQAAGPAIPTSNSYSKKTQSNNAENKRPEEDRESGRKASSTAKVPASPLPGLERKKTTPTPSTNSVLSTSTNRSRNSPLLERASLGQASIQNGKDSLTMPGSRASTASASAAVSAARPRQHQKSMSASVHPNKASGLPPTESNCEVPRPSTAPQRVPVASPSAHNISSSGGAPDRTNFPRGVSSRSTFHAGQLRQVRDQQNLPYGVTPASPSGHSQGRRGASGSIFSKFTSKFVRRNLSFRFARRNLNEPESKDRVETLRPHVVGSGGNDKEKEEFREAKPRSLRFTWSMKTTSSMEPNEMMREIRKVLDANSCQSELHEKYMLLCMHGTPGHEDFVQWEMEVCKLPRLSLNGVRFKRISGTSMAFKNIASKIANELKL
Chain of SRC (P12931 whole entry): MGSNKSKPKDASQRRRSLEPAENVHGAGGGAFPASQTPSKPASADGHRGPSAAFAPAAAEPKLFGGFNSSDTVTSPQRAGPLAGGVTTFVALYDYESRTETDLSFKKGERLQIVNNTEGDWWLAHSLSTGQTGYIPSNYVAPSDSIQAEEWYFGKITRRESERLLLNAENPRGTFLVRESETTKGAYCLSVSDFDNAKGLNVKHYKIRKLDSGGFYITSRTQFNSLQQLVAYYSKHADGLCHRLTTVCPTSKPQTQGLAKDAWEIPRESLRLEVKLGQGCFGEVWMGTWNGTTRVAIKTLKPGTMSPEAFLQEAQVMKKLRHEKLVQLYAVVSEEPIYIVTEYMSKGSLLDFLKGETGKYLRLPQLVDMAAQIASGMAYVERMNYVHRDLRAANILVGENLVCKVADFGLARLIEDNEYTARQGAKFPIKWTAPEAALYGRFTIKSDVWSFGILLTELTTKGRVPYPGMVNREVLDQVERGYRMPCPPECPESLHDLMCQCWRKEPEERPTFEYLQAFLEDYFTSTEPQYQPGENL
Chain of PTK2 (FAK) (Q05397 whole entry): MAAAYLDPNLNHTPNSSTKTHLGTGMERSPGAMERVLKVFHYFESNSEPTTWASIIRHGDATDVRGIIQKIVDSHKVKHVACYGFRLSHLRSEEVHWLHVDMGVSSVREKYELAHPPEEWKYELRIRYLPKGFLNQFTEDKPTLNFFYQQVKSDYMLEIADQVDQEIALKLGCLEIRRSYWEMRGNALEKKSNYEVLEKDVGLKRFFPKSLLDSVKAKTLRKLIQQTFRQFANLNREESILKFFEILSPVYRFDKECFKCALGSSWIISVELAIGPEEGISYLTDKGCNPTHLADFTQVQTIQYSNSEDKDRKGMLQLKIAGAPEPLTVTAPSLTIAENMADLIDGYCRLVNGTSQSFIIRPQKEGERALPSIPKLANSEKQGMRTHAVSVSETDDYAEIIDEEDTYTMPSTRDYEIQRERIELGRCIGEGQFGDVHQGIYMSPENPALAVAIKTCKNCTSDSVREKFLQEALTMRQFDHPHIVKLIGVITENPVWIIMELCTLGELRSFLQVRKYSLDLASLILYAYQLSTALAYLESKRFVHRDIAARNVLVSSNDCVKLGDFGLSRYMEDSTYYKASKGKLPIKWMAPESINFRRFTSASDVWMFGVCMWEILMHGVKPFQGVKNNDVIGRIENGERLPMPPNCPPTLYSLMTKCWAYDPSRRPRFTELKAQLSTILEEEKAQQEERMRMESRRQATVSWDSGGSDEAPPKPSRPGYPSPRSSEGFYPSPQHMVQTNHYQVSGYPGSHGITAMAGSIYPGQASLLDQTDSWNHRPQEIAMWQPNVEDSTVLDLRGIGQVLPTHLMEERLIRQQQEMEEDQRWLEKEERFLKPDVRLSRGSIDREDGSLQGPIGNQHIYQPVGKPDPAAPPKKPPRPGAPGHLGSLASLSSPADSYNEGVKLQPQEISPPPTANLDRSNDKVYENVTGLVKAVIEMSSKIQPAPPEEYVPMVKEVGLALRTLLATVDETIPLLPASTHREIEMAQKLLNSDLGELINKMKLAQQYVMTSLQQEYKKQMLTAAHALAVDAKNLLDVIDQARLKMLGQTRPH
Chain of RPS6KA4 (MSK2) (O75676 whole entry): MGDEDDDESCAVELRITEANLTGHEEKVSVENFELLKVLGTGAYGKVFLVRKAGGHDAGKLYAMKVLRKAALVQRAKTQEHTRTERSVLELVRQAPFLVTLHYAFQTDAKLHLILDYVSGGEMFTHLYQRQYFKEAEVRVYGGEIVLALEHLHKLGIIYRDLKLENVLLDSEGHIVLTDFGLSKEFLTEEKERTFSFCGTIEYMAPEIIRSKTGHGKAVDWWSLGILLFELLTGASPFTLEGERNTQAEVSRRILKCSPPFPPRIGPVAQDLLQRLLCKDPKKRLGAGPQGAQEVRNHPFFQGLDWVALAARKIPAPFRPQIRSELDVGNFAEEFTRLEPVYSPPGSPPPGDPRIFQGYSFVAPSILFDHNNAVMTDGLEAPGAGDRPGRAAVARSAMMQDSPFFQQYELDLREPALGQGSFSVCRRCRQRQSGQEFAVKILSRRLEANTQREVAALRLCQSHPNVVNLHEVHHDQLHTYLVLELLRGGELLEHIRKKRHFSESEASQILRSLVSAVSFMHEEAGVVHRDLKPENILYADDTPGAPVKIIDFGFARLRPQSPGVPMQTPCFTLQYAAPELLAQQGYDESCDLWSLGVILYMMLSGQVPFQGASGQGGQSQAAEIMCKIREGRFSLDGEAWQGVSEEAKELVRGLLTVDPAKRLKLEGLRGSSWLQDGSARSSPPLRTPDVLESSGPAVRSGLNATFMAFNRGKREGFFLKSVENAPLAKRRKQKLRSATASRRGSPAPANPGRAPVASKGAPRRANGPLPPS

Compound | inhibition at 1 µM (MELK) [%] | inhibition at 1 µM (PRKCA (PKC alpha)) [%] | inhibition at 1 µM (SRC) [%] | inhibition at 1 µM (RPS6KA1 (RSK1)) [%] | inhibition at 1 µM (PRKCE (PKC epsilon)) [%] | inhibition at 1 µM (RPS6KA4 (MSK2)) [%] | inhibition at 1 µM (IGF1R) [%] | inhibition at 1 µM (MARK2) [%] | inhibition at 1 µM (PRKCI (PKC iota)) [%] | inhibition at 1 µM (ABL1) [%] | inhibition at 1 µM (PRKX) [%] | inhibition at 1 µM (PRKCG (PKC gamma)) [%] | inhibition at 1 µM (SGKL (SGK3)) [%] | inhibition at 1 µM (PTK2 (FAK)) [%] | inhibition at 1 µM (MKNK1 (MNK1)) [%]
C=CC(=O)Nc1cc(NC(=O)NC2CCN(Cc3ccc(-c4nc5cc[nH]c(=O)c5cc4-c4ccccc4)cc3)CC2)ccc1Cl [compound 27] | 83 | 16 | 36 | 22 | 11 | 16 | 7 | 6 | 5 | 3 | 3 | -6 | -1 | -1 | 29
C=CC(=O)Nc1cccc(C(=O)NC2CCN(Cc3ccc(-c4nc5cc[nH]c(=O)c5cc4-c4ccccc4)cc3)CC2)c1 [30b] | 52 | 27 | 17 | 27 | 27 | 11 | 1 | 4 | -9 | 3 | -6 | 0 | -4 | -4 | 10
C=CC(=O)Nc1ccc2c(c1)n(C1CCN(Cc3ccc(-c4nc5cc[nH]c(=O)c5cc4-c4ccccc4)cc3)CC1)c(=O)n2C [24b] | 48 | 23 | 19 | 14 | 12 | 9 | 6 | 4 | 3 | 2 | -1 | -3 | -5 | -20 | -22
